Test results reported in ChEMBL document CHEMBL3638560, “Picolinamido-propanoic acid derivatives useful as glucagon receptor antagonists” (2014).

Molecular target: Glucagon receptor (Homo sapiens, UniProt P47871)
Experiment: Binding Assay: The binding assay was performed by a filtration method in a 384 well format. Membranes at a final protein concentration of 6 μg/well were incubated with 125I-glucagon at 0.3 nM and in the presence of compound for 2 hours at room temperature in a total reaction volume of 40 μL per well. Assay buffer consisted of 50 mM HEPES, pH 7.4, 5 mM MgCl2, 1 mM CaCl2 and 0.2% BSA. 30 μL of the reaction was then transferred to PEI treated filter plates and followed by filter aspiration. Plates were then washed 5x and allowed to dry at room temperature overnight. The next day the bottom of the plate was covered with seal tape and scintillant was added. Total counts retained by the filters were quantified with a Top Count instrument.

Sequence of Glucagon receptor (P47871 whole entry): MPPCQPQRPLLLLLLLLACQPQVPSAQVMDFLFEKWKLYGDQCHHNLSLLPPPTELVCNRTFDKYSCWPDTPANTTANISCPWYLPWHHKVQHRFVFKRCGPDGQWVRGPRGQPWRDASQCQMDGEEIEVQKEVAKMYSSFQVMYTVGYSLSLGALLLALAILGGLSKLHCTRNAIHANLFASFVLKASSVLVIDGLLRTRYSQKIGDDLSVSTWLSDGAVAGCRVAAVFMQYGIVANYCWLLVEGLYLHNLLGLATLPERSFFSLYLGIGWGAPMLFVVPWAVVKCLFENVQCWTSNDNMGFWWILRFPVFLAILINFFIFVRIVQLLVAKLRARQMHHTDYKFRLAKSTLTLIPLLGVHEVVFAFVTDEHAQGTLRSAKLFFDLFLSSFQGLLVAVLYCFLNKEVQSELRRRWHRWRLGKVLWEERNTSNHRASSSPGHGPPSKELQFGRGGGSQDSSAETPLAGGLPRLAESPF

## O=C(O)CCNC(=O)c1ccc(-c2cc(C(F)(F)F)ccc2CNc2ccc(-c3ccc(Cl)cc3C(F)(F)F)cc2)cn1
  Ki: 47 nM
